Tests used:
B. subtilis 168 [1] = assay: fitness (endpoint OD595 vs no drug) (fraction); higher = more growth
Outline: (§1)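 Fitness compares growth at the stationary-phase transition with the robust mean of no-drug control wells, as a ratio of optical densities. The ratio is capped at 1. Wells of 384-well plates held 30 µl, or 55 µl for S. pneumoniae, inoculated at OD595 0.01. Readings at OD595 every 30 min for 14 h at 37 °C were corrected against the first reading.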

S. pneumoniae D39V [2] = assay: as above
Outline: as §1

S. aureus Newman [3] = assay: as above
Outline: as §1

S. aureus DSM 20231 = assay: Bliss interaction score (quartile over a dose matrix) (fitness difference); higher = more antagonism (negative = synergy)
Outline: (§2)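 The Bliss score takes observed fitness and subtracts the expected fitness, calculated as a product of single-drug fitness values. Those single-drug values were inferred from the combination data. Fitness is OD595 at entry into stationary phase divided by the plate's robust no-drug mean, capped at 1, and the score is summarised by quartiles across technical, biological and donor/recipient replicates.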

B. subtilis 168 [4] = assay: as above
Outline: as §2

S. pneumoniae D39V [5] = assay: as above
Outline: as §2

S. aureus Newman [6] = assay: as above
Outline: as §2

[7] = first compound 0.25 µg/mL, partner 0.0625 µg/mL
[8] = first compound 0.25 µg/mL, partner 0.125 µg/mL
[9] = first compound 0.25 µg/mL, partner 0.25 µg/mL
[10] = first compound 0.5 µg/mL, partner 0.0625 µg/mL
[11] = first compound 0.5 µg/mL, partner 0.125 µg/mL
[12] = first compound 0.5 µg/mL, partner 0.25 µg/mL
[13] = first compound 0.5 µg/mL, partner 0.5 µg/mL, one replicate
[14] = first compound 0.5 µg/mL, partner 1 µg/mL, one replicate
[15] = first compound 0.5 µg/mL, partner 2 µg/mL, one replicate
[16] = first compound 1 µg/mL, partner 0.5 µg/mL, one replicate
[17] = first compound 1 µg/mL, partner 1 µg/mL, one replicate
[18] = first compound 2 µg/mL, partner 0.5 µg/mL, one replicate
[19] = first compound 2 µg/mL, partner 1 µg/mL, one replicate
[20] = first compound 0.25 µg/mL, partner 85.5 µg/mL
[21] = first compound 0.25 µg/mL, partner 342 µg/mL
[22] = first compound 0.5 µg/mL, partner 342 µg/mL
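Wherever Bliss interaction score (quartile over a dose matrix) is given: first quartile when negative (synergy) and third quartile when positive (antagonism).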
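Wherever fitness (endpoint OD595 vs no drug) is given: OD595 on entry to stationary phase over no-drug wells; at most 1.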

CC1=C(C(=O)O)N2C(=O)[C@@H](NC(=O)[C@H](N)c3ccccc3)[C@H]2SC1 [Cephalexin] + CC1=C\[C@@H](O)CC(=O)Cc2nc(co2)C(=O)N2CCC=C2C(=O)O[C@H](C(C)C)[C@H](C)/C=C/C(=O)NC\C=C\1 [Virginiamycin M1]
fitness (B. subtilis 168 [1]; first compound 0.125 µg/mL, partner 0.0625 µg/mL): 0.966
fitness (B. subtilis 168 [1]; first compound 0.125 µg/mL, partner 0.125 µg/mL): 0.944
fitness (B. subtilis 168 [1]; first compound 0.125 µg/mL, partner 0.25 µg/mL): 0.983
fitness (B. subtilis 168 [1]; [7]): 0.944
fitness (B. subtilis 168 [1]; [8]): 0.926
fitness (B. subtilis 168 [1]; [9]): 0.911
fitness (B. subtilis 168 [1]; [10]): 0.955
fitness (B. subtilis 168 [1]; [11]): 0.99
fitness (B. subtilis 168 [1]; [12]): 0.989
fitness (S. pneumoniae D39V [2]; first compound 0.125 µg/mL, partner 0.5 µg/mL, one replicate): 0.967
fitness (S. pneumoniae D39V [2]; first compound 0.125 µg/mL, partner 1 µg/mL, one replicate): 0.966
fitness (S. pneumoniae D39V [2]; first compound 0.125 µg/mL, partner 2 µg/mL, one replicate): 0.954
fitness (S. pneumoniae D39V [2]; first compound 0.25 µg/mL, partner 0.5 µg/mL, one replicate): 0.964
fitness (S. pneumoniae D39V [2]; first compound 0.25 µg/mL, partner 1 µg/mL, one replicate): 0.991
fitness (S. pneumoniae D39V [2]; first compound 0.25 µg/mL, partner 2 µg/mL, one replicate): ≥ 1
fitness (S. pneumoniae D39V [2]; [13]): ≥ 1
fitness (S. pneumoniae D39V [2]; [14]): ≥ 1
fitness (S. pneumoniae D39V [2]; [15]): ≥ 1
fitness (S. pneumoniae D39V [2]; first compound 1 µg/mL, partner 0.15 µg/mL, one replicate): 0.934
fitness (S. pneumoniae D39V [2]; first compound 1 µg/mL, partner 0.3 µg/mL, one replicate): 0.885
fitness (S. pneumoniae D39V [2]; [16]): 0.562
fitness (S. pneumoniae D39V [2]; [17]): 0.504
fitness (S. pneumoniae D39V [2]; first compound 1 µg/mL, partner 2 µg/mL): 0.663
fitness (S. pneumoniae D39V [2]; first compound 2 µg/mL, partner 0.15 µg/mL, one replicate): 0.646
fitness (S. pneumoniae D39V [2]; first compound 2 µg/mL, partner 0.3 µg/mL, one replicate): 0.628
fitness (S. pneumoniae D39V [2]; [18]): 0.316
fitness (S. pneumoniae D39V [2]; [19]): 0.0366
fitness (S. pneumoniae D39V [2]; first compound 4 µg/mL, partner 0.15 µg/mL, one replicate): 0.0743
fitness (S. pneumoniae D39V [2]; first compound 4 µg/mL, partner 0.3 µg/mL, one replicate): 0.0023
fitness (S. pneumoniae D39V [2]; first compound 4 µg/mL, partner 0.5 µg/mL, one replicate): 0.338
fitness (S. pneumoniae D39V [2]; first compound 4 µg/mL, partner 1 µg/mL, one replicate): 0.0659
fitness (S. pneumoniae D39V [2]; first compound 4 µg/mL, partner 2 µg/mL): 0.0521
fitness (S. aureus Newman [3]; [7]): ≥ 1
fitness (S. aureus Newman [3]; [8]): ≥ 1
fitness (S. aureus Newman [3]; [9]): ≥ 1
fitness (S. aureus Newman [3]; [10]): 0.994
fitness (S. aureus Newman [3]; [11]): ≥ 1
fitness (S. aureus Newman [3]; [12]): ≥ 1
fitness (S. aureus Newman [3]; [13]): 0.847
fitness (S. aureus Newman [3]; [14]): ≥ 1
fitness (S. aureus Newman [3]; [15]): 0.936
fitness (S. aureus Newman [3]; first compound 1 µg/mL, partner 0.0625 µg/mL): ≥ 1
fitness (S. aureus Newman [3]; first compound 1 µg/mL, partner 0.125 µg/mL): ≥ 1
fitness (S. aureus Newman [3]; first compound 1 µg/mL, partner 0.25 µg/mL): ≥ 1
fitness (S. aureus Newman [3]; [16]): 0.951
fitness (S. aureus Newman [3]; [17]): ≥ 1
fitness (S. aureus Newman [3]; first compound 1 µg/mL, partner 2 µg/mL, one replicate): 0.923
fitness (S. aureus Newman [3]; [18]): 0.986
fitness (S. aureus Newman [3]; [19]): ≥ 1
fitness (S. aureus Newman [3]; first compound 2 µg/mL, partner 2 µg/mL, one replicate): 0.978
Bliss interaction score (S. aureus DSM 20231): 0.0651
Bliss interaction score (B. subtilis 168 [4]): 0.0598
Bliss interaction score (S. pneumoniae D39V [5]): 0.16
Bliss interaction score (S. aureus Newman [6]): 0.023

CC1=C(C(=O)O)N2C(=O)[C@@H](NC(=O)[C@H](N)c3ccccc3)[C@H]2SC1 [Cephalexin] + CCN(CC)CCOC(=O)c1ccc(N)cc1 [Procaine]
fitness (B. subtilis 168 [1]; first compound 0.125 µg/mL, partner 85.5 µg/mL): 0.925
fitness (B. subtilis 168 [1]; first compound 0.125 µg/mL, partner 171 µg/mL): 0.91
fitness (B. subtilis 168 [1]; first compound 0.125 µg/mL, partner 342 µg/mL): 0.879
fitness (B. subtilis 168 [1]; [20]): 0.911
fitness (B. subtilis 168 [1]; first compound 0.25 µg/mL, partner 171 µg/mL): 0.912
fitness (B. subtilis 168 [1]; [21]): 0.875
fitness (B. subtilis 168 [1]; first compound 0.5 µg/mL, partner 85.5 µg/mL): 0.904
fitness (B. subtilis 168 [1]; first compound 0.5 µg/mL, partner 171 µg/mL): 0.864
fitness (B. subtilis 168 [1]; [22]): 0.869
fitness (S. pneumoniae D39V [2]; first compound 0.125 µg/mL, partner 85.5 µg/mL, one replicate): ≥ 1
fitness (S. pneumoniae D39V [2]; first compound 0.125 µg/mL, partner 171 µg/mL, one replicate): 0.958
fitness (S. pneumoniae D39V [2]; first compound 0.125 µg/mL, partner 342 µg/mL, one replicate): 0.962
fitness (S. pneumoniae D39V [2]; first compound 0.25 µg/mL, partner 85.5 µg/mL, one replicate): ≥ 1
fitness (S. pneumoniae D39V [2]; first compound 0.25 µg/mL, partner 171 µg/mL, one replicate): 0.982
fitness (S. pneumoniae D39V [2]; first compound 0.25 µg/mL, partner 342 µg/mL, one replicate): 0.997
fitness (S. pneumoniae D39V [2]; first compound 0.5 µg/mL, partner 85.5 µg/mL, one replicate): ≥ 1
fitness (S. pneumoniae D39V [2]; first compound 0.5 µg/mL, partner 171 µg/mL, one replicate): ≥ 1
fitness (S. pneumoniae D39V [2]; first compound 0.5 µg/mL, partner 342 µg/mL, one replicate): ≥ 1
fitness (S. pneumoniae D39V [2]; first compound 1 µg/mL, partner 85.5 µg/mL, one replicate): 0.253
fitness (S. pneumoniae D39V [2]; first compound 1 µg/mL, partner 171 µg/mL, one replicate): 0.422
fitness (S. pneumoniae D39V [2]; first compound 1 µg/mL, partner 342 µg/mL, one replicate): 0.395
fitness (S. pneumoniae D39V [2]; first compound 2 µg/mL, partner 85.5 µg/mL, one replicate): 0.0329
fitness (S. pneumoniae D39V [2]; first compound 2 µg/mL, partner 171 µg/mL, one replicate): 0.058
fitness (S. pneumoniae D39V [2]; first compound 2 µg/mL, partner 342 µg/mL, one replicate): 0.0539
fitness (S. pneumoniae D39V [2]; first compound 4 µg/mL, partner 85.5 µg/mL, one replicate): 0.0487
fitness (S. pneumoniae D39V [2]; first compound 4 µg/mL, partner 171 µg/mL, one replicate): 0.0569
fitness (S. pneumoniae D39V [2]; first compound 4 µg/mL, partner 342 µg/mL, one replicate): 0.0475
fitness (S. aureus Newman [3]; [20]): 0.952
fitness (S. aureus Newman [3]; [21]): 0.966
fitness (S. aureus Newman [3]; [22]): 0.987
fitness (S. aureus Newman [3]; first compound 1 µg/mL, partner 342 µg/mL): ≥ 1
Bliss interaction score (S. aureus DSM 20231): 0.0552
Bliss interaction score (B. subtilis 168 [4]): 0.0569
Bliss interaction score (S. pneumoniae D39V [5]): -0.118
Bliss interaction score (S. aureus Newman [6]): -0.0605

Source: the supplement of paper PMC10627819
